In US20210267203A1, “PESTICIDALLY ACTIVE AZOLE-AMIDE COMPOUNDS” (SYNGENTA PARTICIPATIONS AG, priority 2018, published 2021):

Key:
Assay type in all cases: in vivo
[1] = tested on: Plutella xylostella (Diamond Back Moth); test: Example B5: Plutella xylostella (diamond back moth), artificial diet, 24-well, eggs; conditions: 192 h, application rate 200 ppm, 8 days after infestation, read-out: effect in at least one of the two categories (mortality or growth inhibition)
Experimental: Example B5: Plutella xylostella (Diamond Back Moth)
24-well microtiter plates with artificial diet were treated with aqueous test solutions prepared from 10,000 ppm DMSO stock solutions by pipetting. After drying, Plutella eggs were pipetted through a plastic stencil onto a gel blotting paper and the plate was closed with it. The samples were assessed for mortality and growth inhibition in comparison to untreated samples 8 days after infestation. The following compounds gave an effect of at least 80% in at least one of the two categories (mortality or growth inhibition) at an application rate of 200 ppm: […]

[2] = tested on: Euschistus heros (Neotropical Brown Stink Bug); test: Example B2: Euschistus heros (neotropical brown stink bug), soybean leaves sprayed, N2 nymphs; conditions: 120 h, application rate 200 ppm, 5 days after infestation, read-out: effect in at least one of the two categories (mortality or growth inhibition)
Experimental: Example B2: Euschistus heros (Neotropical Brown Stink Bug)
Soybean leaves on agar in 24-well microtiter plates were sprayed with aqueous test solutions prepared from 10,000 ppm DMSO stock solutions. After drying the leaves were infested with N2 nymphs. The samples were assessed for mortality and growth inhibition in comparison to untreated samples 5 days after infestation.
(§1) The following compounds gave an effect of at least 80% in at least one of the two categories (mortality or growth inhibition) at an application rate of 200 ppm: […]

[3] = tested on: Myzus persicae (Green Peach Aphid); test: Example B8: Myzus persicae (green peach aphid), intrinsic activity; conditions: 120 h, test rate 12 ppm, sucrose solution, 24-well, 5 days after infestation
Description: Example B8: Myzus persicae (Green Peach Aphid), Intrinsic Activity
Test compounds prepared from 10,000 ppm DMSO stock solutions were applied by pipette into 24-well microtiter plates and mixed with sucrose solution. The plates were closed with a stretched Parafilm. A plastic stencil with 24 holes was placed onto the plate and infested pea seedlings were placed directly on the Parafilm. The infested plate was closed with a gel blotting paper and another plastic stencil and then turned upside down. The samples were assessed for mortality 5 days after infestation.

[4] = tested on: Plutella xylostella (Diamondback Moth); test: Example B14: activity against Plutella xylostella (diamondback moth), 96-well artificial diet; conditions: 216 h, application rate 500 ppm, 9 days after infestation
Experimental: Example B14: Activity Against Plutella xylostella (Diamondback Moth)
96-well microtiter plates containing artificial diet were treated with aqueous test solutions, prepared from 10,000 ppm DMSO stock solutions, by a liquid handling robot. After drying, eggs (30 per well) were infested onto a netted lid which was suspended above the diet. The eggs hatch and L1 larvae move down to the diet. The samples were assessed for mortality 9 days after infestation.
The following compounds gave an effect of at least 80% average mortality at an application rate of 500 ppm: […]

[5] = tested on: Myzus persicae (Green Peach Aphid); test: Example B6: Myzus persicae (green peach aphid), feeding/contact activity; conditions: 144 h, application rate 200 ppm, 6 days after infestation
Experimental: Example B6: Myzus persicae (Green Peach Aphid):Feeding/Contact Activity
Sunflower leaf discs were placed onto agar in a 24-well microtiter plate and sprayed with aqueous test solutions prepared from 10,000 ppm DMSO stock solutions. After drying, the leaf discs were infested with an aphid population of mixed ages. The samples were assessed for mortality 6 days after infestation.

[6] = tested on: Diabrotica Balteata (Corn Root Worm); test: Example B1: Diabrotica balteata (corn root worm), maize sprouts sprayed, L2 larvae; conditions: 96 h, application rate 200 ppm, 4 days after infestation, read-out: effect in at least one of the two categories (mortality or growth inhibition)
Experimental: Example B1: Diabrotica Balteata (Corn Root Worm)
Maize sprouts placed onto an agar layer in 24-well microtiter plates were treated with aqueous test solutions prepared from 10,000 ppm DMSO stock solutions by spraying. After drying, the plates were infested with L2 larvae (6 to 10 per well). The samples were assessed for mortality and growth inhibition in comparison to untreated samples 4 days after infestation.
as §1

[7] = tested on: Spodoptera littoralis (Egyptian Cotton Leaf Worm); test: Example B9: Spodoptera littoralis (Egyptian cotton leaf worm), cotton leaf discs sprayed, L1 larvae; conditions: foliar, 72 h, application rate 200 ppm, 3 days after infestation
Experimental: Example B9: Spodoptera littoralis (Egyptian Cotton Leaf Worm)
Cotton leaf discs were placed onto agar in 24-well microtiter plates and sprayed with aqueous test solutions prepared from 10,000 ppm DMSO stock solutions. After drying the leaf discs were infested with five L1 larvae. The samples were assessed for mortality, anti-feeding effect, and growth inhibition in comparison to untreated samples 3 days after infestation. Control of Spodoptera littoralis by a test sample is given when at least one of the three categories (i.e. mortality, anti-feedant effect, and growth inhibition) is higher than the untreated sample.

[8] = tested on: Myzus persicae (Green Peach Aphid); test: Example B13: activity against Myzus persicae (green peach aphid), 96-well sucrose solution; conditions: 120 h, application rate 50 ppm, 5 days after infestation
Description: Example B13: Activity Against Myzus persicae (Green Peach Aphid)
Test compounds prepared from 10,000 ppm DMSO stock solutions were applied by a liquid handling robot into 96-well microtiter plates and mixed with a sucrose solution. Parafilm was stretched over the 96-well microtiter plate and a plastic stencil with 96 holes was placed onto the plate. Aphids were sieved into the wells directly onto the Parafilm. The infested plates were closed with a gel blotting card and a second plastic stencil and then turned upside down. The samples were assessed for mortality 5 days after infestation.

[9] = tested on: Chilo suppressalis (Striped Rice Stemborer); test: Example B4: Chilo suppressalis (striped rice stemborer), artificial diet, L2 larvae; conditions: 144 h, application rate 200 ppm, 6 days after infestation
Experimental: Example B4: Chilo suppressalis (Striped Rice Stemborer)
24-well microtiter plates with artificial diet were treated with aqueous test solutions prepared from 10,000 ppm DMSO stock solutions by pipetting. After drying, the plates were infested with L2 larvae (6-8 per well). The samples were assessed for mortality, anti-feeding effect, and growth inhibition in comparison to untreated samples 6 days after infestation. Control of Chilo suppressalis by a test sample is given when at least one of the categories (i.e. mortality, anti-feedant effect, and growth inhibition) is higher than the untreated sample.

CC(NC(=O)c1cc(C2CC2)cc(C(F)(F)F)c1)c1ncnn1-c1ncccn1 (stereo not drawn) [P24, 3-cyclopropyl-N-[1-(2-pyrimidin-2-yl-1,2,4-triazol-3-yl)ethyl]-5-(trifluoromethyl)benzamide]
≥ 80%: percent effect (mortality or growth inhibition) at 200 ppm [1] | percent effect (mortality or growth inhibition) at 200 ppm [2] | mortality at 12 ppm [3] | mortality at 500 ppm [4] | mortality at 200 ppm [5] | percent effect (mortality or growth inhibition) at 200 ppm [6] | percent control (mortality, anti-feedant effect or growth inhibition) at 200 ppm [7] | mortality at 50 ppm [8]

CC(NC(=O)c1cc(OCC(F)F)cc(C2CC2)c1)c1ncnn1-c1ncccn1 (stereo not drawn) [P61, 3-cyclopropyl-5-(2,2-difluoroethoxy)-N-[1-(2-pyrimidin-2-yl-1,2,4-triazol-3-yl)ethyl]benzamide]
≥ 80%: percent effect (mortality or growth inhibition) at 200 ppm [1] | percent effect (mortality or growth inhibition) at 200 ppm [2] | mortality at 12 ppm [3] | mortality at 200 ppm [5] | percent control (mortality, anti-feedant effect or growth inhibition) at 200 ppm [9] | percent control (mortality, anti-feedant effect or growth inhibition) at 200 ppm [7]

CC(NC(=O)c1cc(-c2ccccc2C(F)(F)F)cc(C(F)(F)F)c1)c1ncnn1-c1ncccn1 (stereo not drawn) [P69, N-[1-(2-pyrimidin-2-yl-1,2,4-triazol-3-yl)ethyl]-3-(trifluoromethyl)-5-[2-(trifluoromethyl)phenyl]benzamide]
≥ 80%: percent effect (mortality or growth inhibition) at 200 ppm [1] | percent control (mortality, anti-feedant effect or growth inhibition) at 200 ppm [9] | percent effect (mortality or growth inhibition) at 200 ppm [6] | percent control (mortality, anti-feedant effect or growth inhibition) at 200 ppm [7] | mortality at 50 ppm [8]

C[C@@H](c1ncnn1-c1ncccn1)N(CC1CC1)C(=O)c1cc(C2CC2)cc(C(F)(F)F)c1 [P73, 3-cyclopropyl-N-(cyclopropylmethyl)-N-[(1S)-1-(2-pyrimidin-2-yl-1,2,4-triazol-3-yl)ethyl]-5-(trifluoromethyl)benzamide]
≥ 80%: percent effect (mortality or growth inhibition) at 200 ppm [1] | percent effect (mortality or growth inhibition) at 200 ppm [2] | mortality at 12 ppm [3] | mortality at 200 ppm [5] | percent control (mortality, anti-feedant effect or growth inhibition) at 200 ppm [9] | percent effect (mortality or growth inhibition) at 200 ppm [6] | percent control (mortality, anti-feedant effect or growth inhibition) at 200 ppm [7]

CC(NC(=O)c1cc(C(F)(F)F)cc(C(C)(C)C#N)c1)c1ncnn1-c1ccccn1 (stereo not drawn) [P75, 3-(1-cyano-1-methyl-ethyl)-N-[1-[2-(2-pyridyl)-1,2,4-triazol-3-yl]ethyl]-5-(trifluoromethyl)benzamide]
≥ 80%: percent effect (mortality or growth inhibition) at 200 ppm [1] | mortality at 12 ppm [3] | percent control (mortality, anti-feedant effect or growth inhibition) at 200 ppm [9] | percent effect (mortality or growth inhibition) at 200 ppm [6] | percent control (mortality, anti-feedant effect or growth inhibition) at 200 ppm [7]

Cc1nc(C(C)NC(=O)c2cc(C(F)(F)F)cc(C(C)(C)C#N)c2)n(-c2ncc(Br)cn2)n1 (stereo not drawn) [P77, N-[1-[2-(5-bromopyrimidin-2-yl)-5-methyl-1,2,4-triazol-3-yl]ethyl]-3-(1-cyano-1-methyl-ethyl)-5-(trifluoromethyl)benzamide]
≥ 80%: percent effect (mortality or growth inhibition) at 200 ppm [1] | percent effect (mortality or growth inhibition) at 200 ppm [2] | mortality at 12 ppm [3] | percent control (mortality, anti-feedant effect or growth inhibition) at 200 ppm [9] | percent effect (mortality or growth inhibition) at 200 ppm [6] | percent control (mortality, anti-feedant effect or growth inhibition) at 200 ppm [7]

Cc1nc(C(C)NC(=O)c2cc(C3CC3)cc(C(F)(F)F)c2)n(-c2ncc(Br)cn2)n1 (stereo not drawn) [P80, N-[1-[2-(5-bromopyrimidin-2-yl)-5-methyl-1,2,4-triazol-3-yl]ethyl]-3-cyclopropyl-5-(trifluoromethyl)benzamide]
≥ 80%: percent effect (mortality or growth inhibition) at 200 ppm [1] | percent effect (mortality or growth inhibition) at 200 ppm [2] | percent control (mortality, anti-feedant effect or growth inhibition) at 200 ppm [9] | percent effect (mortality or growth inhibition) at 200 ppm [6] | percent control (mortality, anti-feedant effect or growth inhibition) at 200 ppm [7]

CC(NC(=O)c1cc(C2CC2)cc(C(F)(F)F)c1)c1ncnn1-c1ncc(Br)cn1 (stereo not drawn) [P81, N-[1-[2-(5-bromopyrimidin-2-yl)-1,2,4-triazol-3-yl]ethyl]-3-cyclopropyl-5-(trifluoromethyl)benzamide]
≥ 80%: percent effect (mortality or growth inhibition) at 200 ppm [1] | percent effect (mortality or growth inhibition) at 200 ppm [2] | percent control (mortality, anti-feedant effect or growth inhibition) at 200 ppm [9] | percent effect (mortality or growth inhibition) at 200 ppm [6] | percent control (mortality, anti-feedant effect or growth inhibition) at 200 ppm [7]

Cc1nc(C(C)NC(=O)c2cc(C3CC3)cc(C(F)(F)F)c2)n(-c2ncccn2)n1 (stereo not drawn) [P86, 3-cyclopropyl-N-[1-(5-methyl-2-pyrimidin-2-yl-1,2,4-triazol-3-yl)ethyl]-5-(trifluoromethyl)benzamide]
≥ 80%: percent effect (mortality or growth inhibition) at 200 ppm [1] | percent effect (mortality or growth inhibition) at 200 ppm [2] | mortality at 12 ppm [3] | percent control (mortality, anti-feedant effect or growth inhibition) at 200 ppm [9] | percent effect (mortality or growth inhibition) at 200 ppm [6] | percent control (mortality, anti-feedant effect or growth inhibition) at 200 ppm [7]

CC(NC(=O)c1cc(C(F)(F)F)cc(C2(C)CC2(F)F)c1)c1ncnn1-c1ncccn1 (stereo not drawn) [P88, 3-(2,2-difluoro-1-methyl-cyclopropyl)-N-[1-(2-pyrimidin-2-yl-1,2,4-triazol-3-yl)ethyl]-5-(trifluoromethyl)benzamide]
≥ 80%: percent effect (mortality or growth inhibition) at 200 ppm [1] | percent effect (mortality or growth inhibition) at 200 ppm [2] | mortality at 12 ppm [3] | percent control (mortality, anti-feedant effect or growth inhibition) at 200 ppm [9] | percent effect (mortality or growth inhibition) at 200 ppm [6] | percent control (mortality, anti-feedant effect or growth inhibition) at 200 ppm [7] | mortality at 50 ppm [8]
